Experimental data as given in patent US7192746B2, “α-Isomaltosyltransferase, process for producing the same and use thereof” (Kabushiki Kaisha Hayashibara Seibutsu Kagaku Kenkyujo, priority 2000, dated 2007).

Tests used:
Assay type in all cases: biochemical
[1] = system: α-isomaltosyl-transferring enzyme from Arthrobacter globiformis A19; assay: Action on saccharides (substrates, TLC); parameters: key: −: there was found no substrate change before and after the enzymatic reaction; +: there were found both the reduction of substrate and the formation of cyclotetrasaccharide after the enzymatic reaction; details: partially purified enzyme, 2 units/g substrate, 2% (w/v) substrate, 30° C., pH 6.0, 24 hours
Description: (§1) To examine the saccharides in the supernatant, they were separated from the supernatant by silica gel thin-layer chromatography (abbreviated as “TLC” hereinafter) using, as a developer, a mixture solution of n-butanol, pyridine, and water (=6:4:1), and, as a thin-layer plate, “[…] 60”, an aluminum plate (20×20 cm) for TLC commercialized by […]. The coloration of both the separated total sugars by the sulfuric acid-methanol method and the reducing saccharides by the diphenylamine-aniline method detected a non-reducing saccharide at a position with an Rf value of about 0.31, which was positive on the former detection method but negative on the latter detection method.
(§2) It was tested whether saccharides can be used as substrates for the α-isomaltosyl-transferring enzyme. For the purpose, a solution of maltose, maltotriose, maltotetraose, maltopentaose, maltohexaose, maltoheptaose, isomaltose, isomaltotriose, panose, isomaltosylmaltose, isopanose, α,α-trehalose, kojibiose, nigerose, α,β-trehalose, cellobiose, gentibiose, maltitol, maltotriitol, lactose, sucrose, α-cyclodextrin, β-cyclodextrin, γ-cyclodextrin, soluble starch, pullulan, or dextran was prepared. To each of the above solutions was added two units/g substrate of a purified specimen of either α-isomaltosyl-transferring enzyme from Bacillus globisporus C9 obtained by the method in Experiment 4, Bacillus globisporus C11 obtained by the method in Experiment 7, Bacillus globisporus N75 obtained by the method in Experiment 11, or Arthrobacter ramosus S1 obtained by the method in Experiment 15, or a partially purified α-isomaltosyl-transferring enzyme from Arthrobacter globiformis A19 obtained by the method in Experiment 15. The resulting each solution was adjusted to give a substrate concentration of 2% (w/v) and incubated at 30° C. and pH 6.0 for 24 hours. The enzyme solutions before and after the enzymatic reactions were respectively analyzed on TLC as disclosed in Experiment 1 to confirm whether the enzymes acted on these substrates.

[2] = system: α-isomaltosyl-transferring enzyme from Arthrobacter ramosus S1; assay: Action on saccharides (substrates, TLC); parameters: key: −: there was found no substrate change before and after the enzymatic reaction; +: there were found both the reduction of substrate and the formation of cyclotetrasaccharide after the enzymatic reaction; details: 2 units/g substrate, 2% (w/v) substrate, 30° C., pH 6.0, 24 hours
Description: as §1, §2

[3] = system: α-isomaltosyl-transferring enzyme from Bacillus globisporus C11; assay: Action on saccharides (substrates, TLC); parameters: key: −: there was found no substrate change before and after the enzymatic reaction; +: there were found both the reduction of substrate and the formation of cyclotetrasaccharide after the enzymatic reaction; details: 2 units/g substrate, 2% (w/v) substrate, 30° C., pH 6.0, 24 hours
Description: as §1, §2

[4] = system: α-isomaltosyl-transferring enzyme from Bacillus globisporus C9; assay: Action on saccharides (substrates, TLC); parameters: key: −: there was found no substrate change before and after the enzymatic reaction; +: there were found both the reduction of substrate and the formation of cyclotetrasaccharide after the enzymatic reaction; details: 2 units/g substrate, 2% (w/v) substrate, 30° C., pH 6.0, 24 hours
Description: as §1, §2

[5] = system: α-isomaltosyl-transferring enzyme from Bacillus globisporus N75; assay: Action on saccharides (substrates, TLC); parameters: key: −: there was found no substrate change before and after the enzymatic reaction; +: there were found both the reduction of substrate and the formation of cyclotetrasaccharide after the enzymatic reaction; details: 2 units/g substrate, 2% (w/v) substrate, 30° C., pH 6.0, 24 hours
Description: as §1, §2

[6] = system: α-isomaltosyl-transferring enzyme from Arthrobacter globiformis A19; assay: Specificity to transferring acceptor; parameters: key: −: no saccharide transferred product was formed; ±: a saccharide-transferred product formed in an amount of less than one percent to the total sugars; +: a saccharide-transferred product was formed in an amount of over one percent but below 10% to the total sugars; ++: a saccharide-transferred product was formed in an amount of over 10% to the total sugars; details: partially purified enzyme, panose as saccharide donor, 10 units/g substrate, 3.2% (w/v), 30° C., pH 6.0, 24 hours
Description: (§3) Saccharides were tested as follows to examine whether they can be used as transferring acceptors for the α-isomaltosyl-transferring enzyme of the present invention. A solution of D-glucose, D-xylose, L-xylose, D-galactose, D-fructose, D-mannose, D-arabinose, D-fucose, L-sorbose, L-rhamnose, methyl-α-glucoside (or methyl-α-glucopyranoside), methyl-β-glucoside (or methyl-β-glucopyranoside), N-acetyl-D-glucosamine, D-ribose, L-ribose, D-psicose, sorbitol, xylitol, mannitol, arabitol, ribitol, erythritol, maltose, maltotriose, maltotetraose, maltopentaose, isomaltose, isomaltotriose, α,α-trehalose, α,β-trehalose, kojibiose, nigerose, cellobiose, gentibiose, isopanose, maltitol, maltotriitol, lactose, sucrose, erlose, isomaltosylglucoside, α-cyclodextrin, β-cyclodextrin, γ-cyclodextrin, or L-ascorbic acid was prepared. To each solution was added panose as a saccharide donor to give an equal concentration, admixed with 10 units/g substrate of a purified specimen of either α-isomaltosyl-transferring enzyme from Bacillus globisporus C9 obtained by the method in Experiment 4, Bacillus globisporus C11 obtained by the method in Experiment 7, Bacillus globisporus N75 obtained by the method in Experiment 11, or Arthrobacter ramosus S1 obtained by the method in Experiment 15, or a partially purified specimen of α-isomaltosyl-transferring enzyme from Arthrobacter globiformis A19 obtained by the method in Experiment 18, followed by adjusting the saccharide concentration to 3.2% (w/v). The mixtures thus obtained were enzymatically reacted at 30° C. and Ph 6.0 for 24 hours. The saccharide composition of the resulting reaction mixtures were analyzed on gas chromatography (abbreviated as “GLC” hereinafter) for monosaccharides and disaccharides as testing saccharides, and on HPLC for tri- or higher-saccharides as testing saccharides to confirm whether these saccharides can be used as transferring acceptors for the above enzymes with an index of the positive or negative formation of a saccharide transferred product. In performing GLC, the following apparatuses and conditions were used: GLC apparatus, “GC-16A” commercialized by Shimadzu Corporation, Tokyo, Japan; column, a stainless-steel column, 3 mm in diameter and 2 m in length, packed with 2% “SILICONE OV-17/[…]”, commercialized by GL Sciences Inc., Tokyo, Japan; carrier gas, nitrogen gas at a flow rate of 40 ml/min under temperature conditions of increasing from 160° C. to 320° C. at an increasing temperature rate of 7.5° C./min; and detection, a hydrogen flame ionization detector. In the case of HPLC analysis, the apparatuses and conditions used were: HPLC apparatus, “CCPD” commercialized by Tosoh Corporation, Tokyo, Japan; column, “ODS-AQ-303” commercialized by YMC Co., Ltd., Tokyo, Japan; eluent, water at a flow rate of 0.5 ml/min; and detection, a differential refractometer.

[7] = system: α-isomaltosyl-transferring enzyme from Arthrobacter ramosus S1; assay: Specificity to transferring acceptor; parameters: key: −: no saccharide transferred product was formed; ±: a saccharide-transferred product formed in an amount of less than one percent to the total sugars; +: a saccharide-transferred product was formed in an amount of over one percent but below 10% to the total sugars; ++: a saccharide-transferred product was formed in an amount of over 10% to the total sugars; details: panose as saccharide donor, 10 units/g substrate, 3.2% (w/v), 30° C., pH 6.0, 24 hours
Description: as §3

[8] = system: α-isomaltosyl-transferring enzyme from Bacillus globisporus C11; assay: Specificity to transferring acceptor; parameters: key: −: no saccharide transferred product was formed; ±: a saccharide-transferred product formed in an amount of less than one percent to the total sugars; +: a saccharide-transferred product was formed in an amount of over one percent but below 10% to the total sugars; ++: a saccharide-transferred product was formed in an amount of over 10% to the total sugars; details: panose as saccharide donor, 10 units/g substrate, 3.2% (w/v), 30° C., pH 6.0, 24 hours
Description: as §3

[9] = system: α-isomaltosyl-transferring enzyme from Bacillus globisporus C9; assay: Specificity to transferring acceptor; parameters: key: −: no saccharide transferred product was formed; ±: a saccharide-transferred product formed in an amount of less than one percent to the total sugars; +: a saccharide-transferred product was formed in an amount of over one percent but below 10% to the total sugars; ++: a saccharide-transferred product was formed in an amount of over 10% to the total sugars; details: panose as saccharide donor, 10 units/g substrate, 3.2% (w/v), 30° C., pH 6.0, 24 hours
Description: as §3

[10] = system: α-isomaltosyl-transferring enzyme from Bacillus globisporus N75; assay: Specificity to transferring acceptor; parameters: key: −: no saccharide transferred product was formed; ±: a saccharide-transferred product formed in an amount of less than one percent to the total sugars; +: a saccharide-transferred product was formed in an amount of over one percent but below 10% to the total sugars; ++: a saccharide-transferred product was formed in an amount of over 10% to the total sugars; details: panose as saccharide donor, 10 units/g substrate, 3.2% (w/v), 30° C., pH 6.0, 24 hours
Description: as §3

Row | Molecule | Enzymatic action for forming cyclotetrasaccharide, Enzyme of Strain A19 [1] | Enzymatic action for forming cyclotetrasaccharide, Enzyme of Strain S1 [2] | Enzymatic action for forming cyclotetrasaccharide, Enzyme of Strain C11 [3] | Enzymatic action for forming cyclotetrasaccharide, Enzyme of Strain C9 [4] | Enzymatic action for forming cyclotetrasaccharide, Enzyme of Strain N75 [5] | Product of transferring reaction, Enzyme of Stain A19 [6] | Product of transferring reaction, Enzyme of Strain S1 [7] | Product of transferring reaction, Enzyme of Strain C11 [8] | Product of transferring reaction, Enzyme of Strain C9 [9] | Product of transferring reaction, Enzyme of Strain N75 [10]
1 | OC[C@H]1O[C@@H]2O[C@H]3[C@H](O)[C@@H](O)[C@@H](O[C@H]4[C@H](O)[C@@H](O)[C@@H](O[C@H]5[C@H](O)[C@@H](O)[C@@H](O[C@H]6[C@H](O)[C@@H](O)[C@@H](O[C@H]7[C@H](O)[C@@H](O)[C@@H](O[C@H]1[C@H](O)[C@H]2O)O[C@@H]7CO)O[C@@H]6CO)O[C@@H]5CO)O[C@@H]4CO)O[C@@H]3CO [α-Cyclodextrin, α-cyclodextrin] | − | − | − | − | − | − | − | − | − | −
2 | maltopentaose | − | − | − | − | − | + (a saccharide-transferred product was formed in an amount of over one percent but below 10% to the total sugars) | ± (a saccharide-transferred product formed in an amount of less than one percent to the total sugars) | + (a saccharide-transferred product was formed in an amount of over one percent but below 10% to the total sugars) | + (a saccharide-transferred product was formed in an amount of over one percent but below 10% to the total sugars) | ± (a saccharide-transferred product formed in an amount of less than one percent to the total sugars)
3 | OC[C@H]1O[C@H](OC[C@H]2O[C@H](O[C@H]3[C@H](O)[C@@H](O)C(O)O[C@@H]3CO)[C@H](O)[C@@H](O)[C@@H]2O)[C@H](O)[C@@H](O)[C@@H]1O (some centres unmarked) [Panose, panose] | + | + | + | + | + |  |  |  |  | 
4 | maltohexaose | − | − | − | − | − |  |  |  |  | 
5 | maltoheptaose | − | − | − | − | − |  |  |  |  | 
6 | OC[C@H]1O[C@H](OC[C@H]2O[C@H](O[C@H]3[C@H](O)[C@@H](O)[C@@H](O[C@H]4[C@H](O)[C@@H](O)C(O)O[C@@H]4CO)O[C@@H]3CO)[C@H](O)[C@@H](O)[C@@H]2O)[C@H](O)[C@@H](O)[C@@H]1O (some centres unmarked) [Isomaltosylmaltose, isomaltosylmaltose] | + | + | + | + | + |  |  |  |  | 
7 | CC(=O)N[C@H]1C(O)O[C@H](CO)[C@@H](O)[C@@H]1O (stereo partly drawn) [N-Acetyl-glucosamine, N-acetyl-D-glucosamine] |  |  |  |  |  | − | − | − | − | −
8 | O=C(CO)[C@@H](O)[C@H](O)[C@@H](O)CO [L-Sorbose, L-sorbose] |  |  |  |  |  | + (a saccharide-transferred product was formed in an amount of over one percent but below 10% to the total sugars) | + (a saccharide-transferred product was formed in an amount of over one percent but below 10% to the total sugars) | + (a saccharide-transferred product was formed in an amount of over one percent but below 10% to the total sugars) | + (a saccharide-transferred product was formed in an amount of over one percent but below 10% to the total sugars) | + (a saccharide-transferred product was formed in an amount of over one percent but below 10% to the total sugars)
